The experiment deals with T1, N-AGT enzyme (AGT-mGluR2 fusion protein) (Homo sapiens, UniProt P16455).
T1 construct: fused on or other part: type 2 metabotropic glutamate receptor (mGluR2)
Description: Enzymatic reactivity test in a cell model, N-AGT mutant. Format: cell-based. The following applies: living cells, N-AGT mutant; labeling 1 h at 37° C.; read-out: half saturation concentration of the enzyme. The method, then:
This procedure makes it possible to test the reactivity of substrates according to the invention with an AGT expressed by COS 7 cells in the form of a fusion protein with the type 2 glutamate transmembrane receptor (mGluR2).
Various mutants of AGT were analyzed in this study: SNAP-tag-ST26 or CLIP-tag from Covalys or the N-AGT mutant described by Gronemeyer et al. (Protein Engineering, Design & Selection, Vol. 19, No. 7, pp. 309-316, 2006).
The transient transfection of the cells is carried out by electroporation using a Biorad electroporator: 10 million cells are transfected by 1 μg SNAP-tag-mGluR2+3 μg pcdna3.1 in a final volume of 300 μl. The electroporation parameters are: 280 V & 1000 μF. […]
The labeling of the AGT-mGluR2 fusion protein takes place in 100 μl of complete medium with increasing concentrations of BG-fluorophore or BG-L1-A-L2-fluorophore according to the invention for 1 h at 37° C. Before the reading, 4 washing operations are carried out with 100 μl of Tris-Krebs.
For the substrates bearing fluorophores ATTO647 (example 2), DY647 (examples 1 and 5) and fluorescein-5-EX (example 3), the reading is carried out in 100 μl of Tris-Krebs in direct fluorescence at 682 nm on a Rubystar machine, and at 520 nm for those bearing fluorescein-5-EX (example 3). […]

T1 sequence (P16455 whole entry, looked up, the tested form may be a part): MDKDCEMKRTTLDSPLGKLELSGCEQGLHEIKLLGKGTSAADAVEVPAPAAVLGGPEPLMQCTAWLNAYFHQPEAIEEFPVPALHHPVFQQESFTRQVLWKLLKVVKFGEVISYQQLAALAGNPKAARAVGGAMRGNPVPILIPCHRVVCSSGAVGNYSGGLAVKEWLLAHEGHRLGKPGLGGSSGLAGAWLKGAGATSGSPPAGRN

Turning to “Tb(KR)-methylbenzamide-BG [BG-methylbenzamide-Tb(KR)]”, the EC50 amounted to 6.4 nM.

The values above are taken from patent publication US9024022B2, “Substrates of O6-alkylguanine-DNA alkyltransferase and mutants thereof” (Cis Bio International, priority 2008, dated 2015).
